# Target: T1, sGC α1/β1 heterodimer (Homo sapiens, UniProt Q02108+Q02153)
# T1 construct: expressed in transfected cells; host or cells: CHO-K1 (clone #7, CHO-K1/sGC)
# T1 sequence (Q02108 1-690): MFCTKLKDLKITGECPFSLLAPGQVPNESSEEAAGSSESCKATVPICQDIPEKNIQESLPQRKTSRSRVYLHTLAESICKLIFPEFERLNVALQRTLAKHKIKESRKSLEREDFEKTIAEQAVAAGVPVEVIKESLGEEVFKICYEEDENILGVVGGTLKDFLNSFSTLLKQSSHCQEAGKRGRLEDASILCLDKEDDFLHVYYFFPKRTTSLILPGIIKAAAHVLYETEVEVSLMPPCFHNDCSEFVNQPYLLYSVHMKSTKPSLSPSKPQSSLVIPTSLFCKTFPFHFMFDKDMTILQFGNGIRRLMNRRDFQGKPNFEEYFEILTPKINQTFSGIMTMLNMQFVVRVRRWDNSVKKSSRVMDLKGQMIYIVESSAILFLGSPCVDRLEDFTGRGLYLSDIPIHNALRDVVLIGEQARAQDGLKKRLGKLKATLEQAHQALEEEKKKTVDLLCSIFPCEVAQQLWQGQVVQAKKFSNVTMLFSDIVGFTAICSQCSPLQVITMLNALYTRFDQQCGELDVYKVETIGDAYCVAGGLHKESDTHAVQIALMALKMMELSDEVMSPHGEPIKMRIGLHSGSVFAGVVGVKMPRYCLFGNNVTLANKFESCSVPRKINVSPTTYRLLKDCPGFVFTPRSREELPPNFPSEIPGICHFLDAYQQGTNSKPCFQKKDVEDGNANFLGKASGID
# T1 sequence (Q02153 1-619): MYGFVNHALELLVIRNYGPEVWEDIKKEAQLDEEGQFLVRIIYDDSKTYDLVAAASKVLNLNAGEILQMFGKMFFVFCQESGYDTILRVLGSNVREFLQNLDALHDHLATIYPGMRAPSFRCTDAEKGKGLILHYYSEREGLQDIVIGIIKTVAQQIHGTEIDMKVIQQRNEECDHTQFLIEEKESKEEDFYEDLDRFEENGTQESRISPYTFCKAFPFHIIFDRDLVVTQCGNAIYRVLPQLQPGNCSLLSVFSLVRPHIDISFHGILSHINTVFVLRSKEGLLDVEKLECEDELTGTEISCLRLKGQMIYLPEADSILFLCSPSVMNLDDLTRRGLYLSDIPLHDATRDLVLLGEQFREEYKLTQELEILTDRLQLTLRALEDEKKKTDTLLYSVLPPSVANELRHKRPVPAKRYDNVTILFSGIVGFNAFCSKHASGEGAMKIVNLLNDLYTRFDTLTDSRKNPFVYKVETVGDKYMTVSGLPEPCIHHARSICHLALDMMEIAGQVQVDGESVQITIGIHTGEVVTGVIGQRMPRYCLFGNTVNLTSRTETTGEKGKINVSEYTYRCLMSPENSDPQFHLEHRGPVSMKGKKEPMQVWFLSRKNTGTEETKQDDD
# Experiment: Cell-based sGC functional assay (CASA assay): cGMP generation in CHO-K1/sGC cells, HTRF detection
# Details: for Emax: CHO-K1, percent activation relative to standard Compound A in CHO-K1/sGC cells, read-out: % Act.; for EC50: inflection point (IP) of cGMP generation in CHO-K1/sGC cells, 4P fit, activity expressed as percentage of Compound A
# From the text: Biological Assay 1: Cell-Based sGC Functional Assay (CASA Assay)
# sGC is a heme-containing enzyme that converts GTP to secondary messenger cGMP. Increases in cGMP levels affect several physiological processes including vasorelaxation through multiple downstream pathways. […] Heme-dependent activators (HDAs) preferentially activate sGC containing a ferrous heme group. To determine the effect of sGC activators on enzyme activity, the CASA assay was developed to monitor the generation of cGMP in a cell line that stably expresses the heterodimeric sGC protein.
# A CHO-K1 cell line stably expressing the sGC α1/β1 heterodimer was generated using a standard transfection protocol. CHO-K1 cells were transfected with plasmids pIREShyghsGCal and pIRESneo-hsGCβ1 simultaneously using FUGENE reagent. Clones that stably express both subunits were selected with hygromycin and neomycin for 2 weeks. Clone #7 was chosen for the assay and was designated CHO-K1/sGC. CHO-K1/sGC cells were maintained in F-K12 medium containing 10% heat-inactivated Fetal Bovine Serum (FBS), 100 μg/mL penicillin/streptomycin, 0.5 mg/mL hygromycin and 0.25 mg/mL G418. The cells were then cryopreserved in LN2. On the day of the assay, cells thawed and resuspended in EBSS Assay Buffer (Sigma, E3024) supplemented with 5 mM MgCl2, 10 mM HEPES (4-(2-hydroxyethyl)piperazine-1-ethanesulfonic acid) and 0.05% BSA (bovine serum albumin) (EAB) and cell density was then adjusted to 4×10^5/mL with EAR IBMX (3-isobutyl-1-methylxanthin, 0.5 mM) was added to inhibit degradation of cGMP. Compounds were diluted from DMSO stock solutions and added to the assay at a final DMSO concentration of 2.5%. Cells were incubated with compounds in the presence and absence of 1 μM of Diethylenetriamine/nitric oxide adduct (DETA-NO; Sigma, 17018) for 1 hr at 37° C. At the end of the incubation period, the reaction was terminated and the cells were lysed with the detection reagents from Cisbio Kits. The level of intracellular cGMP was determined using an HTRF-based assay kit (CisBio, 62GM2PEC), which detects the displacement of a fluorescence labeled cGMP from its specific antibody. The cGMP produced by test compounds was directly compared to the maximum cGMP production (this value was set to equal 100% activation.) of the published sGC-HDA Compound A:
# [drawing 597] (Example 1 in WO 2010/065275, published Jun. 10, 2010). The test compounds' activities were then expressed as a percentage of Compound A, the standard in every experiment. This percent activation was calculated either in the presence or absence of DETA-NO which was then plotted. IP and maximum fold induction was derived using ADA analysis software for 4P fit.
# The compounds in the Examples of the instant invention had inflection points (IP) less than or equal to 10 μM and more particularly less than or equal to about 1 μM.
SMILES,Emax,EC50
"Nc1nc(-c2cn3ccnc3c(CCC(F)(F)C(F)(F)F)n2)nc2c1C(c1cccnc1)(C1CC1)C(=O)N2 (single isomer, unassigned) [Example 359B, 4-amino-5-cyclopropyl-2-(8-(3,3,4,4,4-pentafluorobutyl)imidazo[1,2-a]pyrazin-6-yl)-5-(pyridin-3-yl)-5H-pyrrolo[2,3-d]pyrimidin-6(7H)-one]",108%,302 nM
"CCCCc1nc(-c2nc(N)c3c(n2)NC(=O)C3(c2ccc(F)cc2)C2CCC2)cn2ccnc12 (single isomer, unassigned) [Example 361B, 4-amino-2-(8-butylimidazo[1,2-a]pyrazin-6-yl)5-cyclobutyl-5-(4-fluorophenyl)-5H-pyrrolo[2,3-d]pyrimidin-6(7H)-one]",157%,47 nM
"Cc1nc(C2(C3CC3)C(=O)Nc3nc(-c4cn5ccnc5c(CCCC(F)(F)F)n4)nc(N)c32)ccc1F (single isomer, unassigned) [Example 362B, 4-amino-5-cyclopropyl-5-(5-fluoro-6-methylpyridin-2-yl)-2-(8-(4,4,4-trifluorobutyl)imidazo[1,2-a]pyrazin-6-yl)-5H-pyrrolo[2,3-d]pyrimidin-6(7H)-one]",140%,384 nM
"Cc1cc(Cl)cnc1C1(C2CC2)C(=O)Nc2nc(-c3cn4ccnc4c(CCCC(F)(F)F)n3)nc(N)c21 (single isomer, unassigned) [Example 364A, 4-amino-5-(5-chloro-3-methylpyridin-2-yl)-5-cyclopropyl-2-(8-(4,4,4-trifluorobutyl)imidazo[1,2-a]pyrazin-6-yl)-5H-pyrrolo[2,3-d]pyrimidin-6(7H)-one]",138%,273 nM
"CCCCc1nc(-c2nc(N)c3c(n2)NC(=O)C3(c2cc(C(F)(F)F)ccn2)C2CC2)cn2ccnc12 (single isomer, unassigned) [Example 367B, 4-amino-2-(8-butylimidazo[1,2-a]pyrazin-6-yl)-5-cyclopropyl-5-(4-(trifluoromethyl)pyridin-2-yl)-5H-pyrrolo[2,3-d]pyrimidin-6(7H)-one]",170%,155 nM
"Nc1nc(-c2cn3ccnc3c(CCCC(F)(F)F)n2)nc2c1C(c1cccc(C(F)(F)F)n1)(C1CC1)C(=O)N2 (single isomer, unassigned) [Example 368B, 4-amino-5-cyclopropyl-2-(8-(4,4,4-trifluorobutyl)imidazo[1,2-a]pyrazin-6-yl)-5-(6-(trifluoromethyl)pyridin-2-yl)-5H-pyrrolo[2,3-d]pyrimidin-6(7H)-one]",151%,148 nM

# The next lines start with the values.
Emax,EC50,SMILES
186%,244 nM,"Cc1nc(C2(C3CC3)C(=O)Nc3nc(-c4cn5ccnc5c(CCC(F)(F)C(F)(F)F)n4)nc(N)c32)ccc1F (single isomer, unassigned) [Example 363B, 4-amino-5-cyclopropyl-5-(5-fluoro-6-methylpyridin-2-yl)-2-(8-(3,3,4,4,4-pentafluorobutyl)imidazo[1,2-a]pyrazin-6-yl)-5H-pyrrolo[2,3-d]pyrimidin-6(7H)-one]"
108%,704 nM,"Cc1cncc(C2(C3CC3)C(=O)Nc3nc(-c4cn5ccnc5c(CCCC(F)(F)F)n4)nc(N)c32)n1 (single isomer, unassigned) [Example 365B, 4-amino-5-cyclopropyl-5-(6-methylpyrazin-2-yl)-2-(8-(4,4,4-trifluorobutyl)imidazo[1,2-a]pyrazin-6-yl)-5H-pyrrolo[2,3-d]pyrimidin-6(7H)-one]"
122%,843 nM,"Cc1cncc(C2(C3CC3)C(=O)Nc3nc(-c4cn5ccnc5c(CCC(F)(F)C(F)(F)F)n4)nc(N)c32)n1 (single isomer, unassigned) [Example 366B, 4-amino-5-cyclopropyl-5-(6-methylpyrazin-2-yl)-2-(8-(3,3,4,4,4-pentafluorobutyl)imidazo[1,2-a]pyrazin-6-yl)-5H-pyrrolo[2,3-d]pyrimidin-6(7H)-one]"

# Reference: patent US9796733B2, “Imidazo-pyrazine derivatives useful as soluble guanylate cyclase activators” (Merck Sharp & Dohme Corp., priority 2014, dated 2017)
